Data set [1] can be described thus: physchem. The following applies: octanol/phosphate buffer, pH 7.4.
A short description of data set [2]: in vitro. The following applies: rat, hepatocytes.
The subject of data set [3] is Rattus norvegicus. The data set is described as follows: Clearance in Han Wistar rat at 8.55 umol/kg, iv or 20.3 umol/kg, po relative to liver blood flow. The following applies: in vivo. The data set is classed as ADME, organism-based.
A short description of data set [4]: Volume of distribution at steady state in Han Wistar rat at 8.55 umol/kg, iv or 20.3 umol/kg, po. It is filed as ADME, organism-based. The following applies: in vivo, read-out: Vdss.
Data set [5] can be described thus: Oral bioavailability in Han Wistar rat at 20.3 umol/kg. It is filed as ADME, organism-based. The following applies: in vivo.
The nature of data set [6]: Plasma concentration in Swiss nu/nu mouse xenografted with human LoVo cells at 25 mg/kg, po bid after 8 hrs. The data set is classed as ADME, organism-based.
Data set [7] can be described thus: Volume of distribution at steady state in Beagle dog at 10.5 umol/kg, iv or […], po. The data set is classed as ADME, organism-based, Canis lupus familiaris. The following applies: in vivo, read-out: Vdss.
A short description of data set [8]: Apparent permeability across apical to basolateral side in human Caco2 cells at 10 uM at pH 6.5. The data set is classed as ADME, cell-based. The following applies: Caco-2, pH 6.5. For orientation: Caco-2 cells form a polarised layer with tight junctions and transporters.
The nature of data set [9]: Apparent permeability across apical to basolateral side in human Caco2 cells at 10 uM at pH 7.4. The data set is classed as ADME, cell-based. The following applies: Caco-2, pH 7.4.
Data set [10] can be described thus: in vitro. The following applies: human, hepatocytes.
Data set [11] in a line: Plasma concentration in Swiss nu/nu mouse xenografted with human LoVo cells at 50 mg/kg, po qd after 8 hrs. The data set is classed as ADME, organism-based. In general terms: Xenograft models place foreign cells or tissue in a host animal.
Data set [12] concerns Rattus norvegicus. Put plainly: Dose normalized AUC in Han-Wistar rat at 10 umol/kg, po. The data set is classed as ADME, organism-based. The following applies: in vivo.
In data set [13] the test system is Canis familiaris. The data set is described as follows: Clearance in Beagle dog at 10.5 umol/kg, iv or […], po relative to liver blood flow. It is filed as ADME, organism-based, Canis lupus familiaris. The following applies: in vivo.
Data set [14] in a line: Plasma concentration in Swiss nu/nu mouse xenografted with human LoVo cells at 75 mg/kg, po qd after 8 hrs. It is filed as ADME, organism-based.
Data set [15] is described as follows: Oral bioavailability in Beagle dog at […]. It is filed as ADME, organism-based, Canis lupus familiaris. The following applies: in vivo.
Data set [16] in a line: Intrinsic clearance in human hepatocytes assessed as per million cells at 1 uM. The following applies: read-out: CLH. It is filed as ADME, cell-based, Hepatocyte.
Data set [17] can be described thus: Elimination half life in human. It is filed as ADME, organism-based. The following applies: in vivo, read-out: beta t1/2 (converted).
A short description of data set [18]: Plasma concentration in Swiss nu/nu mouse xenografted with human LoVo cells at 25 mg/kg, po qd after 8 hrs. The data set is classed as ADME, organism-based.
A short description of data set [19]: Plasma concentration in Swiss nu/nu mouse xenografted with human LoVo cells at 12.5 mg/kg, po bid after 8 hrs. The data set is classed as ADME, organism-based.
The subject of data set [20] is Rattus norvegicus. The data set is described as follows: Dose normalized AUC in Han-Wistar rat at 4 umol/kg, po. The data set is classed as ADME, organism-based. The following applies: in vivo.

SMILES strings stand for the structures.

For orientation: logD means lipophilicity at a set pH, counting ionised and neutral species. In turn, `C[C@@H]1COCCN1c1cc(C2(S(C)(=O)=O)CC2)nc(-c2ccnc3[nH]ccc23)n1` yielded a logD at 3 h, 10 µM in data set [1] of 2.6.

A word on the bioavailability: it is the share of a dose that reaches the circulation, judged against a reference dose that is usually intravenous. For orientation: Papp A→B means the apparent permeability from the apical to the basolateral side of a cell layer. On to `C[C@@H]1COCCN1c1cc(C2([S@](C)(=N)=O)CC2)nc(-c2cc[nH]c3nccc2-3)n1` [CERALASERTIB], for which, in data set [1], the logD at 3 h, 10 µM is 1.9. The hepatocyte CLint at 1 µM in data set [2] is less than 3.5 µL/min/1e6 cells; in data set [10] it was less than 3 µL/min/1e6 cells; in data set [16] it was 2 µL/min/1e6 cells. Moreover, the figures for the CL in data set [3] and in data set [13] were 22% and 10%, respectively. Besides, the Vd amounted to 3.1 L/kg in [4] and 1 L/kg in [7]. Also, the bioavailability in data set [5] was determined as 67%; in [15], 100%. The concentration at 8 h in [6] came to 740 nM; in data set [11], 2200 nM; in [14], 2600 nM. For the same compound, the Papp A→B at 10 µM in [8] worked out at 6.8 ×10⁻⁶ cm/s; in data set [9], 12 ×10⁻⁶ cm/s. Moreover, in data set [12], the AUC/dose came to 0.8 µM·h. In addition, in [17], the half-life was 11 h.

For `CNc1nc2ccccc2n1-c1nc(N2CCOC[C@H]2C)cc(C2(S(C)(=O)=O)CC2)n1`, the logD at 3 h, 10 µM in [1] turned out to be 2.8. Also, the hepatocyte CLint at 1 µM in data set [2] is 25 µL/min/1e6 cells; in [10], less than 3 µL/min/1e6 cells. In data set [6], this compound displayed a concentration at 8 h of 8300 nM. The Papp A→B at 10 µM in data set [9] amounted to 53 ×10⁻⁶ cm/s. In [12], this compound yielded an AUC/dose of 0.4 µM·h.

On to `C[C@@H]1COCCN1c1cc(C2(S(C)(=O)=O)CC2)nc(-c2cncc3[nH]ccc23)n1`, for which the logD at 3 h, 10 µM in data set [1] came out at 2.1. The hepatocyte CLint at 1 µM in [2] is 10 µL/min/1e6 cells; in data set [10], less than 3 µL/min/1e6 cells. The concentration at 8 h in data set [18] amounted to 780 nM; in data set [19], 220 nM. In addition, in data set [8], the apical-to-basolateral permeability (Papp A→B) at 10 µM amounted to 8 ×10⁻⁶ cm/s. Also, the AUC/dose in [20] turned out to be 0.08 µM·h.

As for `CNc1nc2ccccc2n1-c1nc(N2CCOC[C@H]2C)cc(C2([S@](C)(=N)=O)CC2)n1`, the logD at 3 h, 10 µM in [1] came out at 2.1. In addition, the figures for the hepatocyte CLint at 1 µM in [2] and in [10] were 11 µL/min/1e6 cells and less than 3 µL/min/1e6 cells, respectively. Besides, the Papp A→B at 10 µM in data set [9] was determined as 8 ×10⁻⁶ cm/s. This compound returned a concentration at 8 h in data set [11] of 940 nM. Further, the AUC/dose in [12] is 0.35 µM·h.

In data set [1], `CS(=O)(=O)C1(c2cc(N3C4CCC3COC4)nc(-c3cncc4[nH]ccc34)n2)CC1` gave a logD at 3 h, 10 µM of 2.1.

In [1], `CS(=O)(=O)C1(c2cc(N3CCOCC3)nc(-n3c(N)nc4ccccc43)n2)CC1` registered a logD at 3 h, 10 µM of 2.2.

In turn, `C[C@@H]1COCCN1c1cc(C2(S(C)(=O)=O)CC2)nc(-n2c(N)nc3ccccc32)n1` yielded a logD at 3 h, 10 µM in [1] of 2.5.

In [1], `CS(=O)(=O)C1(c2cc(N3CCOCC3)nc(-c3cncc4[nH]ccc34)n2)CC1` displayed a logD at 3 h, 10 µM of 1.8.

Consider `CS(=O)(=O)C1(c2cc(N3CC4CCC(C3)O4)nc(-c3cncc4[nH]ccc34)n2)CC1`, for which the log distribution coefficient (logD) at 3 h, 10 µM in [1] was 2.2.

For the compound `CS(=O)(=O)C1(c2cc(N3CCOCC3)nc(-c3cccc4[nH]cnc34)n2)CC1`, the logD at 3 h, 10 µM in data set [1] is 2.2.

Take `C[C@@H]1COCCN1c1cc(C2([S@@+](C)[O-])CC2)nc(-c2ccnc3[nH]ccc23)n1`: the logD at 3 h, 10 µM in data set [1] amounted to 2.5.

Consider `CNC(=O)c1cc(-c2nc(N3CCOCC3)cc(C3(S(C)(=O)=O)CC3)n2)c2cc[nH]c2c1`, for which the logD at 3 h, 10 µM in data set [1] is 1.6.

In data set [1], `CS(=O)(=O)C1(c2cc(N3CCOCC3)nc(-c3cccc4[nH]ccc34)n2)CC1` returned a logD at 3 h, 10 µM of 2.3.

`C[C@@H]1COCCN1c1cc(C2([S@@](C)(=N)=O)CC2)nc(-c2ccnc3[nH]ccc23)n1` showed a logD at 3 h, 10 µM in [1] of 1.8.

In turn, `C[C@@H]1COCCN1c1cc(C2(S(C)(=O)=O)CC2)nc(-c2cccc3[nH]ccc23)n1` gave a pH-dependent lipophilicity (logD) at 3 h, 10 µM in data set [1] of 2.5. In addition, the concentration at 8 h in data set [6] worked out at 1800 nM; in data set [11] it was 3500 nM. Also, in data set [9], the Papp A→B at 10 µM came out at 37 ×10⁻⁶ cm/s. The AUC/dose in [20] came out at 1 µM·h.

`C[C@H]1COCCN1c1cc(C2(S(C)(=O)=O)CC2)nc(-c2cncc3[nH]ccc23)n1` returned a logD at 3 h, 10 µM in data set [1] of 2.2.

Consider `C[C@@H]1COCCN1c1cc(C2(S(C)(=N)=O)CC2)nc(-c2cncc3[nH]ccc23)n1` (some centres undefined), for which the logD at 3 h, 10 µM in data set [1] was found to be 1.4.

In the case of `CC(=O)Nc1nc2ccccc2n1-c1nc(N2CCOC[C@H]2C)cc(C2(S(C)(=O)=O)CC2)n1`, the logD at 3 h, 10 µM in data set [1] was 1.8.

In [1], `CNc1nc2ccccc2n1-c1nc(N2CCOC[C@H]2C)cc(C2([S@@](C)(=N)=O)CC2)n1` had a logD at 3 h, 10 µM of 2.1.

Turning to `CS(=O)(=O)C1(c2cc(C3=CCOCC3)nc(-c3cccc4[nH]ccc34)n2)CC1`, the logD at 3 h, 10 µM in [1] amounted to 2.9.

In data set [1], `CS(=O)(=O)C1(c2cc(N3CCOCC3)nc(-c3ccnc4[nH]ccc34)n2)CC1` registered a logD at 3 h, 10 µM of 2.2.

`C[C@@H]1COCCN1c1cc(C2([S@+](C)[O-])CC2)nc(-c2ccnc3[nH]ccc23)n1` registered a logD at 3 h, 10 µM in [1] of 2.5.

For the origin of these results see ChEMBL document CHEMBL4266018, “Discovery and Characterization of AZD6738, a Potent Inhibitor of Ataxia Telangiectasia Mutated and Rad3 Related (ATR) Kinase with Application as an Anticancer Agent” (J Med Chem, 2018).
